# Experiments:
# wild oat = assay: Test C preemergence/postemergence greenhouse plant response rating 0 to 100; format: in vivo, Avena fatua; details: POSTEMERGENCE; for Plant response rating, Wild oat: 0 to 100 scale
# Summary of the method: (§1)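 Compounds in non-phytotoxic solvent applied preemergence to sandy loam one day after planting, postemergence at the 1–4 leaf stage, or to ~2.5 cm floodwater over silt loam.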
# rape = assay: as above; format: in vivo, Brassica napus; details: POSTEMERGENCE; for Plant response rating, Rape: 0 to 100 scale
# Summary of the method: as §1
# giant foxtail = assay: as above; format: in vivo, Setaria faberii; details: POSTEMERGENCE; for Plant response rating, Giant foxtail: 0 to 100 scale
# Summary of the method: as §1
# wheat [1] = assay: as above; format: in vivo, Triticum aestivum; details: POSTEMERGENCE; for Plant response rating, Wheat: 0 to 100 scale
# Summary of the method: as §1
# morningglory = assay: Test B preemergence/postemergence greenhouse plant response rating 0 to 10; format: in vivo, Ipomoea hederacea; details: 0 to 10 scale
# Summary of the method: (§2)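 Test chemicals were sprayed onto freshly planted seed and, concurrently, onto young plants between the one and four leaf stage. After a twelve- to sixteen-day greenhouse period, each species was visually compared with untreated controls.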
# bedstraw = assay: Test C preemergence/postemergence greenhouse plant response rating 0 to 100; format: in vivo, Galium aparine; details: POSTEMERGENCE; for Plant response rating, Bedstraw: 0 to 100 scale
# Summary of the method: as §1
# wheat [2] = assay: Test B preemergence/postemergence greenhouse plant response rating 0 to 10; format: in vivo, Triticum aestivum; details: 0 to 10 scale
# Summary of the method: as §2
# blackgrass = assay: Test C preemergence/postemergence greenhouse plant response rating 0 to 100; format: in vivo, Alopecurus myosuroides; details: POSTEMERGENCE; for Plant response rating, Blackgrass: 0 to 100 scale
# Summary of the method: as §1
# cotton = assay: Test B preemergence/postemergence greenhouse plant response rating 0 to 10; format: in vivo, Gossypium hirsutum; details: 0 to 10 scale
# Summary of the method: as §2
# velvetleaf = assay: as above; format: in vivo, Abutilon theophrasti; details: 0 to 10 scale
# Summary of the method: as §2
# barnyardgrass = assay: as above; format: in vivo, Echinochloa crus-galli; details: 0 to 10 scale
# Summary of the method: as §2
# speedwell = assay: Test C preemergence/postemergence greenhouse plant response rating 0 to 100; format: in vivo, Veronica persica; details: POSTEMERGENCE; for Plant response rating Speedwell: 0 to 100 scale
# Source text: The compounds evaluated in this test were formulated in a non-phytoxic solvent and applied to the soil surface before plant seedlings emerged (preemergence application), to water that covered the soil surface (flood application), and to plants that were in the one-to-four leaf stage (postemergence application). A sandy loam soil was used for the preemergence and postemergence tests, while a silt loam soil was used in the flood test. Water depth was approximately 2.5 cm for the flood test and was maintained at this level for the duration of the test. Plant species in the preemergence and postemergence tests consisted of barley (Hordeum vulgare), bedstraw (Galium aparine), blackgrass (Alopecurus myosuroides), chickweed (Stellaria media), corn (Zea mays), cotton (Gossypium hirsutum), crabgrass (Digitaria sanguinalis), downy brome (Bromus tectorum), giant foxtail (Setaria faberii), lambsquarters (Chenopodium album), morningglory (Ipomoea hederacea), pigweed ([…]), rape (Brassica napus), ryegrass (Lolium multiflorum), sorghum (Sorghum bicolor), soybean (Glycine max), speedwell (Veronica persica), sugar beet (Beta vulgaris), velvetleaf (Abutilon theophrasti), wheat (Triticum aestivum), wild buckwheat (Polygonum convolvulus), and wild oat (Avena fatua). All plant species were planted one day before application of the compound for the preemergence portion-of this test. Plantings of these species were adjusted to produce plants of appropriate size for the post-emergence portion of the test. […] All plant species were grown using normal greenhouse practices. Visual evaluations of injury expressed on treated plants, when compared to untreated controls, were recorded approximately fourteen to twenty one days after application of the test compound. […] A dash (-) response means no test result.
# crabgrass = assay: as above; format: in vivo, Digitaria sanguinalis; details: POSTEMERGENCE; for Plant response rating, Crabgrass: 0 to 100 scale
# Summary of the method: as §1
smiles,measurement,setting,value
C=CCN1C(=O)COc2cc(F)c(-c3nn4c(c3Br)CCCC4)cc21 [Compound 41],"Plant response rating, Wild oat",wild oat; 62 g/ha,40
same,"Plant response rating, Wild oat",wild oat; 125 g/ha,50
same,"Plant response rating (0 to 100), Wild oat",wild oat; Rate 16 g/ha,20
same,"Plant response rating (0 to 100), Wild oat",wild oat; Rate 31 g/ha,30
same,"Plant response rating, Rape",rape; 62 g/ha,100
same,"Plant response rating, Rape",rape; 125 g/ha,100
same,"Plant response rating (0 to 100), Rape",rape; Rate 16 g/ha,95
same,"Plant response rating (0 to 100), Rape",rape; Rate 31 g/ha,100
same,"Plant response rating, Giant foxtail",giant foxtail; 62 g/ha,30
same,"Plant response rating, Giant foxtail",giant foxtail; 125 g/ha,50
same,"Plant response rating (0 to 100), Giant foxtail",giant foxtail; Rate 16 g/ha,20
same,"Plant response rating (0 to 100), Giant foxtail",giant foxtail; Rate 31 g/ha,30
same,"Plant response rating, Wheat",wheat [1]; 62 g/ha,50
same,"Plant response rating, Wheat",wheat [1]; 125 g/ha,60
same,"Plant response rating (0 to 100), Wheat",wheat [1]; Rate 16 g/ha,40
same,"Plant response rating (0 to 100), Wheat",wheat [1]; Rate 31 g/ha,50
same,"Plant response rating, Morningglory","morningglory; POSTEMERGENCE, Rate 50 g/ha",9
same,"Plant response rating, Morningglory","morningglory; PREEMERGENCE, Rate 50 g/ha",0
same,"Plant response rating, Morningglory","morningglory; Rate 200 g/ha, POSTEMERGENCE",10
same,"Plant response rating, Morningglory","morningglory; Rate 200 g/ha, PREEMERGENCE",7
same,"Plant response rating, Bedstraw",bedstraw; 62 g/ha,80
same,"Plant response rating, Bedstraw",bedstraw; 125 g/ha,90
same,"Plant response rating (0 to 100), Bedstraw",bedstraw; Rate 16 g/ha,70
same,"Plant response rating (0 to 100), Bedstraw",bedstraw; Rate 31 g/ha,70
same,"Plant response rating, Wheat","wheat [2]; POSTEMERGENCE, Rate 50 g/ha",5
same,"Plant response rating, Wheat","wheat [2]; PREEMERGENCE, Rate 50 g/ha",1
same,"Plant response rating, Wheat","wheat [2]; Rate 200 g/ha, POSTEMERGENCE",5
same,"Plant response rating, Wheat","wheat [2]; Rate 200 g/ha, PREEMERGENCE",3
same,"Plant response rating, Blackgrass",blackgrass; 62 g/ha,50
same,"Plant response rating, Blackgrass",blackgrass; 125 g/ha,60
same,"Plant response rating (0 to 100), Blackgrass",blackgrass; Rate 16 g/ha,40
same,"Plant response rating (0 to 100), Blackgrass",blackgrass; Rate 31 g/ha,40
same,"Plant response rating, Cotton","cotton; POSTEMERGENCE, Rate 50 g/ha",10
same,"Plant response rating, Cotton","cotton; POSTEMERGENCE, Rate 200 g/ha",10
same,"Plant response rating, Cotton","cotton; PREEMERGENCE, Rate 50 g/ha",4
same,"Plant response rating, Cotton","cotton; Rate 200 g/ha, PREEMERGENCE",2
same,"Plant response rating, Velvetleaf","velvetleaf; POSTEMERGENCE, Rate 50 g/ha",10
same,"Plant response rating, Velvetleaf","velvetleaf; PREEMERGENCE, Rate 50 g/ha",2
same,"Plant response rating, Velvetleaf","velvetleaf; Rate 200 g/ha, POSTEMERGENCE",10
same,"Plant response rating, Velvetleaf","velvetleaf; Rate 200 g/ha, PREEMERGENCE",10
same,"Plant response rating, Barnyardgrass","barnyardgrass; POSTEMERGENCE, Rate 50 g/ha",3
same,"Plant response rating, Barnyardgrass","barnyardgrass; POSTEMERGENCE, Rate 200 g/ha",6
same,"Plant response rating, Barnyardgrass","barnyardgrass; PREEMERGENCE, Rate 50 g/ha",4
same,"Plant response rating, Barnyardgrass","barnyardgrass; Rate 200 g/ha, PREEMERGENCE",6
same,Plant response rating Speedwell,speedwell; 62 g/ha,100
same,Plant response rating Speedwell,speedwell; 125 g/ha,100
same,"Plant response rating (0 to 100), Speedwell",speedwell; Rate 16 g/ha,100
same,"Plant response rating (0 to 100), Speedwell",speedwell; Rate 31 g/ha,100
same,"Plant response rating, Crabgrass",crabgrass; 62 g/ha,20
same,"Plant response rating, Crabgrass",crabgrass; 125 g/ha,30
same,"Plant response rating (0 to 100), Crabgrass",crabgrass; Rate 16 g/ha,10
same,"Plant response rating (0 to 100), Crabgrass",crabgrass; Rate 31 g/ha,10

# Source: patent US6358885B1, “Substituted phenylheterocyclic herbicides” (Mississippi State University, priority 1992, dated 2002)
